Data set [1] concerns HIV-2 strain ROD (infectious). The data set is described as follows: inhibition of HIV-2. Type of data set: cell-based. The note with it: HIV-2 ROD. Here is the method: Inhibition rate (%) and IC50 value were calculated.
In order to further reflect the antiviral advantages of the potent lipopeptides of the present invention, their inhibitory activity against HIV-2 and SIV was determined in the example. The methods of antiviral activity assays used were described in the literatures published by the present inventors (see the References 13 and 30 listed in the Background Art). The molecular cloning plasmid pROD of the HIV-2 strain ROD (HIV-2ROD) was kindly provided by Professor Nuno Taveira from the University of Lisbon, Portugal, and the plasmids expressing the SIV strain SIVpbj (SIVPBJ) and SIV239 envelope proteins (pSIVpbj-Env and pSIV239, respectively) were kindly provided by Professor Xu Jianqing from the Fudan University. The preparation of the infectious ROD was the same as that of the infectious JRCSF in the above section 2.1, and the pseudoviruses SIVpbj and SIV239 were prepared by a method same as that described in the above Examples 2 and 3.

For data set [2], the system named is HIV-1 strain NL4-3 (NL4-3D36G). Description: antiviral activity in serum of macaque after subcutaneous injection. Type of data set: in vivo, macaques (rhesus monkeys). The conditions noted are these: 3 mg/kg subcutaneous. The method, then:
The specific method was as follows: 6 experimental macaques (rhesus monkeys) were selected, half male and half female, aged 3-4 years old, weighing 3.4-4.7 kg. […] The serum was separated according to a conventional method. The injection interval of each inhibitor was more than 2 weeks to ensure that there was no residue of the previous analyte. The serum activity against the HIV-1 strain NL4-3 (NL4-3D36G) was measured according to the experimental method of the pseudovirus-based assay in the above examples. The serum was diluted by 3 folds. […] Therefore, the lipopeptides of the present invention were not only potent but also were long-lasting effective.

Data set [3] in a line: circular dichroism secondary structure analysis of the inhibitors themselves. The data set is classed as physicochemical. The conditions noted are these: for secondary structure of the inhibitor itself (in words): 10 μM, 20 μM and 40 μM in PBS. Here is the method: The circular dichroism spectrophotometer was Jasco-815 by JASCO Inc., and the assay method was referred to the papers published by the inventors (see the References 18 and 30 listed in the Background Art). […] The N39 and an inhibitor were separately dissolved in a phosphate buffered saline (PBS) to prepare a PBS solution (pH 7.2) of a concentration of 20 μM. The N39 was mixed with an inhibitor at a volume ratio of 1:1 (final concentration of 10 μM for each), the mixed sample was placed at 37° C. for 30 minutes to fully react, and then the helix content and Tm value of the resultant complex were measured by the circular dichroism spectrophotometer. The scan wavelength range of the device was 195-260 nm with a wavelength interval of 1 nm, and the values measured by scanning for three times were averaged. Based on the CD signals, the interaction between the polypeptides and the helix content were determined. Then, the sample for CD signal measurement was transferred to the temperature scanning sample cell, the program of the CD device was set to temperature scanning with a detection wavelength of 220 nm and scanning range of 20-98° C., and the program scan was performed to obtain the curve of the CD signals vs temperature, based on which the Tm value was calculated. Based on the Tm value, the stability of the formed helical structure of the inhibitor and N39 was judged.
For easy analysis, the α-helix content and the Tm value of the inhibitors were measured at concentrations of 10 μM, 20 μM, and 40 μM (PBS solution), respectively.
(In general: CD spectra are sensitive to the conformation of chiral molecules.)

Setting [4] is: 72 hours (3 days) after injection.

Peptide text beside a SMILES is read from it. * marks the point of attachment. X1 = Cc1c(C)c2c(c(C)c1OC(=O)CCC(=O)*)CCC(C)(CCCC(C)CCCC(C)CCCC(C)C)O2; Stearoyl = CCCCCCCCCCCCCCCCCC(=O)*; Palmitoyl = CCCCCCCCCCCCCCCC(=O)*

In the case of `CCCCCCCCCCCCCCCC(=O)NCCCC[C@H](NC(=O)[C@H](CCC(=O)O)NC(=O)[C@H](CC(C)C)NC(=O)[C@H](CCCCN)NC(=O)[C@H](CCCCN)NC(=O)[C@H](CC(C)C)NC(=O)[C@H](CCC(=O)O)NC(=O)[C@H](CCC(=O)O)NC(=O)[C@H](CCC(=O)O)NC(=O)[C@H](CC(N)=O)NC(=O)[C@H](CCCCN)NC(=O)[C@H](CCCCN)NC(=O)[C@H](CCC(N)=O)NC(=O)[C@H](CCC(N)=O)NC(=O)[C@H](CCC(=O)O)NC(=O)[C@H](CCC(=O)O)NC(=O)[C@H](C)NC(=O)[C@H](CCCCN)NC(=O)[C@H](CCCCN)NC(=O)[C@H](CC(C)C)NC(=O)[C@H](CC(C)C)NC(=O)[C@H](CCC(=O)O)NC(=O)[C@H](CCC(=O)O)NC(=O)[C@@H](NC(=O)[C@H](CC(N)=O)NC(=O)[C@H](C)NC(=O)[C@H](CCC(=O)O)NC(=O)[C@H](CC(C)C)NC(C)=O)[C@@H](C)CC)C(N)=O` [LP-51] (Ac-LEANIEELLKKAEEQQKKNEEELKKLEK(Palmitoyl)-NH2), the “inhibitory activity against HIV-2 (in words)” value (shortened to “inhibitory activity”) in data set [1] is listed as “extremely potent inhibitory activity”. Moreover, the “maximum serum dilution multiple for inhibiting 50% of NL4-3 infectivity” value in data set [2] (4 hour after injection) was 700482 folds; in data set [2] (6 hour after injection), 584381 folds; in data set [2] (setting [4]), 1122 folds. Further, the “secondary structure of the inhibitor itself (in words)” value in data set [3] is “distinct helical structure”.
With `CCCCCCCCCCCCCCCCCC(=O)NCCCC[C@H](NC(=O)[C@H](CCC(=O)O)NC(=O)[C@H](CC(C)C)NC(=O)[C@H](CCCCN)NC(=O)[C@H](CCCCN)NC(=O)[C@H](CC(C)C)NC(=O)[C@H](CCC(=O)O)NC(=O)[C@H](CCC(=O)O)NC(=O)[C@H](CCC(=O)O)NC(=O)[C@H](CC(N)=O)NC(=O)[C@H](CCCCN)NC(=O)[C@H](CCCCN)NC(=O)[C@H](CCC(N)=O)NC(=O)[C@H](CCC(N)=O)NC(=O)[C@H](CCC(=O)O)NC(=O)[C@H](CCC(=O)O)NC(=O)[C@H](C)NC(=O)[C@H](CCCCN)NC(=O)[C@H](CCCCN)NC(=O)[C@H](CC(C)C)NC(=O)[C@H](CC(C)C)NC(=O)[C@H](CCC(=O)O)NC(=O)[C@H](CCC(=O)O)NC(=O)[C@@H](NC(=O)[C@H](CCCCN)NC(=O)[C@H](CCC(N)=O)NC(=O)[C@H](CCC(=O)O)NC(=O)[C@H](Cc1c[nH]c2ccccc12)NC(C)=O)[C@@H](C)CC)C(N)=O` [LP-80] (Ac-WEQKIEELLKKAEEQQKKNEEELKKLEK(Stearoyl)-NH2), in data set [1], the “inhibitory activity” value is “extremely potent inhibitory activity”. Also, the “maximum serum dilution multiple for inhibiting 50% of NL4-3 infectivity” value is 491409 folds in data set [2] (6 hour after injection); 537206 folds in data set [2] (8 hour after injection); 16157 folds in data set [2] (setting [4]); 1980 folds in data set [2] (96 hours (4 days) after injection); 211 folds in data set [2] (120 hours (5 days) after injection); 46 folds in data set [2] (144 hours (6 days) after injection). Moreover, in data set [3], the “secondary structure of the inhibitor itself (in words)” value was “distinct helical structure”. Also, the “helix content and Tm value of the inhibitor itself (in words)” value in data set [3] (among the four potent lipopeptides) was “the higher helix content and Tm value”.
In the case of `CCCCCCCCCCCCCCCCCC(=O)NCCCC[C@H](NC(=O)[C@H](CCC(=O)O)NC(=O)[C@H](CC(C)C)NC(=O)[C@H](CCCCN)NC(=O)[C@H](CCCCN)NC(=O)[C@H](CC(C)C)NC(=O)[C@H](CCC(=O)O)NC(=O)[C@H](CCC(=O)O)NC(=O)[C@H](CCC(=O)O)NC(=O)[C@H](CC(N)=O)NC(=O)[C@H](CCCCN)NC(=O)[C@H](CCCCN)NC(=O)[C@H](CCC(N)=O)NC(=O)[C@H](CCC(N)=O)NC(=O)[C@H](CCC(=O)O)NC(=O)[C@H](CCC(=O)O)NC(=O)[C@H](C)NC(=O)[C@H](CCCCN)NC(=O)[C@H](CCCCN)NC(=O)[C@H](CC(C)C)NC(=O)[C@H](CC(C)C)NC(=O)[C@H](CCC(=O)O)NC(=O)[C@H](CCC(=O)O)NC(=O)[C@@H](NC(C)=O)[C@@H](C)CC)C(N)=O` [LP-90] (Ac-IEELLKKAEEQQKKNEEELKKLEK(Stearoyl)-NH2), the “inhibitory activity” value in data set [1] was “extremely potent inhibitory activity”.
Still for that read-out and setting: the same measure for `CC[C@H](C)[C@H](NC(=O)[C@H](CCCCN)NC(=O)[C@H](CCC(N)=O)NC(=O)[C@H](CCC(=O)O)NC(=O)[C@H](Cc1c[nH]c2ccccc12)NC(C)=O)C(=O)N[C@@H](CCC(=O)O)C(=O)N[C@@H](CCC(=O)O)C(=O)N[C@@H](CC(C)C)C(=O)N[C@@H](CC(C)C)C(=O)N[C@@H](CCCCN)C(=O)N[C@@H](CCCCN)C(=O)N[C@@H](C)C(=O)N[C@@H](CCC(=O)O)C(=O)N[C@@H](CCC(=O)O)C(=O)N[C@@H](CCC(N)=O)C(=O)N[C@@H](CCC(N)=O)C(=O)N[C@@H](CCCCN)C(=O)N[C@@H](CCCCN)C(=O)N[C@@H](CC(N)=O)C(=O)N[C@@H](CCC(=O)O)C(=O)N[C@@H](CCC(=O)O)C(=O)N[C@@H](CCC(=O)O)C(=O)N[C@@H](CC(C)C)C(=O)N[C@@H](CCCCN)C(=O)N[C@@H](CCCCN)C(=O)N[C@@H](CC(C)C)C(=O)N[C@@H](CCC(=O)O)C(=O)N[C@@H](CCCCNC(=O)CCC(=O)Oc1c(C)c(C)c2c(c1C)CCC(C)(CCCC(C)CCCC(C)CCCC(C)C)O2)C(N)=O` (stereo partly drawn) [LP-85] (Ac-WEQKIEELLKKAEEQQKKNEEELKKLEK(X1)-NH2): “extremely potent inhibitory activity”.
For `CCCCCCCCCCCCCCCC(=O)NCCCC[C@H](NC(=O)[C@H](CCC(=O)O)NC(=O)[C@H](CC(C)C)NC(=O)[C@H](CCCCN)NC(=O)[C@H](CCCCN)NC(=O)[C@H](CC(C)C)NC(=O)[C@H](CCC(=O)O)NC(=O)[C@H](CCC(=O)O)NC(=O)[C@H](CCC(=O)O)NC(=O)[C@H](CC(N)=O)NC(=O)[C@H](CCCCN)NC(=O)[C@H](CCCCN)NC(=O)[C@H](CCC(N)=O)NC(=O)[C@H](CCC(N)=O)NC(=O)[C@H](CCC(=O)O)NC(=O)[C@H](CCC(=O)O)NC(=O)[C@H](C)NC(=O)[C@H](CCCCN)NC(=O)[C@H](CCCCN)NC(=O)[C@H](CC(C)C)NC(=O)[C@H](CC(C)C)NC(=O)[C@H](CCC(=O)O)NC(=O)[C@H](CCC(=O)O)NC(=O)[C@@H](NC(=O)[C@H](CCCCN)NC(=O)[C@H](CCC(N)=O)NC(=O)[C@H](CCC(=O)O)NC(=O)[C@H](Cc1c[nH]c2ccccc12)NC(C)=O)[C@@H](C)CC)C(N)=O` [LP-52] (Ac-WEQKIEELLKKAEEQQKKNEEELKKLEK(Palmitoyl)-NH2), the “inhibitory activity” value in data set [1] is “extremely potent inhibitory activity”. The figures for the “maximum serum dilution multiple for inhibiting 50% of NL4-3 infectivity” value in data set [2] (4 hour after injection), in data set [2] (6 hour after injection) and in data set [2] (setting [4]) were 700802 folds, 669112 folds and 182 folds, respectively. Also, the “secondary structure of the inhibitor itself (in words)” value in data set [3] is on record as “distinct helical structure”.

These data come from patent US11680086B2, “Lipopeptide for potently inhibiting HIV, derivative thereof, pharmaceutical composition thereof and use thereof” (Institute of Pathogen Biology, Chinese Academy of Medical …, priority 2017, dated 2023).
